From US20140343105A1, “NOVEL ORALLY ADMINISTERED DABIGATRAN FORMULATION” (BOEHRINGER INGELHEIM INTERNATIONAL GMBH, priority 2012, published 2014)
≈ marks a conversion by molar mass, not a printed value.

How the values were obtained:
[1] = Solubility of DS in presence of hydrophilic polymers (CMC-Na) and cyclodextrins; format: physicochemical
Method: (§1) 2 ml Eppendorf tubes can be filled with about 1.8 ml aqueous solution with a selected pH value. The volume used for the screening is 1.8 ml. The molar amount of cyclodextrin (CD) in the given volume is calculated for the given CD concentration. For a given molar ratio of active ingredient DS/CD the amount of active ingredient (DS) is calculated. Normally, a molar ratio of DS/CD=1/1 is targeted: 1 mol DS and 1 mol CD. As precise as possible, the calculated amount of DS is weighted into the tube exactly. The actual amount is reported.
(§2) According to the actual amount of DS the necessary volume of CD solution is calculated. As precise as possible, the requested volume of CD solution is pipetted into the tube. The actual volume pipetted is reported. The solution in the tube is placed on an Eppendorf Vario shaker. The solution is intensively shaken by means of ultrasound (Hielscher Ultrasound Processor) for 10 seconds at the maximum. It is payed attention to heat generation and overheating has to be avoided.
(§3) The tube is shaken for 1 hour in the Eppendorf Thermomixer at the given temperature and at 800 rpm. Subsequently, the pH value is checked and the given pH value adjusted accordingly, if necessary. The tube is shaken for 24 hours in the Eppendorf Thermomixer at the given temperature and at 800 rpm.
Eppendorf tubes are centrifuged for about 15 minutes at the given temperature, but at 40° C. at the maximum (max. temperature of the centrifuge), and 14,000 rpm. In case no clear supernatant is obtained centrifugation is repeated with adjusted rpm (revolutions per minute) and time. In case the supernatant is not clear and a filtration step is necessary the content of the tube is sucked or poured into 2 ml single use syringe. The supernatant is filtered through a 0.2 μm filter (Pall GHP Acrodisc 13 mm Syringe Filter 0.2 μm pore size). About 2-3 drops of the solution are discarded. The rest of the volume is collected in a second tube. If temperatures above room temperature (about 22° C.) are given, filters and tubes have to be tempered at that temperature prior to use.
(§4) The clear supernatant or filtrate is used for the analysis of the concentration. The pH value of the clear solution is analysed. The DS concentration of the clear solution is measured by UV/VIS spectroscopy (e.g., Hewlett-Packard 8453 UV/Visible Spectrophotometer).
DS, especially Dabigatranetexilat methanesulphonate, is tested for its solubility in dependency of the presence of various hydrophilic polymers and various cyclodextrins whereby the hydrophilic polymer is added to the aqueous solution before adding the DS.

[2] = Solubility of the active ingredient (DS) in cyclodextrin solutions at various pH values (UV/VIS); format: physicochemical
Method: Dabigatranetexilat methanesulphonate is tested for its solubility in dependency of the presence of various cyclodextrins at various ph values as follows:
as §1, §2, §3
Eppendorf tubes are centrifuged for about 15 minutes at the given temperature, but at 40° C. at the maximum (max. temperature of the centrifuge), and 14,000 rpm. In case no clear supernatant is obtained centrifugation is repeated with adjusted rpm (revolutions per minute) and time. […]
as §4

increase of the solubility of the DS and of the drug load DS/CD ([1]; addition of 0.05% to 0.5% of CMC-Na, α-CD 10% (w/v)): up to 11% | complexation efficiency of the CD ([1]; addition of a hydrophilic polymer before adding the DS): significantly improved | solubility at 24 h ([1]; aqueous α-cyclodextrin solution with CMC-Na, aqueous with cosolvent or surfactant or cyclodextrin, thermodynamic from solid, 14% α-CD solution at pH 3 with 0.25% CMC-Na): ~67.3 mg/mL | effect of cyclodextrins on solubility of the active ingredient ([2]; all cyclodextrins tested, various pH values): significantly improve the solubility | solubility at 24 h ([2]; aqueous α-cyclodextrin solution, aqueous with cosolvent or surfactant or cyclodextrin, thermodynamic from solid, 10% (w/v) α-CD solution at pH 3): ~43 mg/mL (≈ 68.5 mM)
Structure (SMILES): CCCCCCOC(=O)NC(=N)c1ccc(NCc2nc3cc(C(=O)N(CCC(=O)OCC)c4ccccn4)ccc3n2C)cc1 [DS, dabigatran etexilate]
g α-CD to complex 1 g API ([1]; α-CD, CMC-Na added): ≈ 2.1 g | mol α-CD necessary to complex 1 mol API ([1]; α-CD, CMC-Na added): About 1.6 mol | mol α-CD necessary to complex 1 mol API ([2]; α-CD 10% (w/v)): About 1.7 mol
